Results from patent publication US6664231B1, “Anti-fungal peptides” (priority 1993, dated 2003).
“And” between values parts separate entries of the source, which are not always exact repeats. Identical values can stand only once. Like-named read-outs stand apart in the source and are kept apart here. Square brackets hold non-standard residues; d marks the D form. Ends that are not written are not given here. Peptide text beside a SMILES is read from it. 1Nal = N[C@@H](Cc1cccc2ccccc12)C(=O)O; d2Nal = N[C@H](Cc1ccc2ccccc2c1)C(=O)O; Dab = NCC[C@H](N)C(=O)O

Columns and labels:
[1] = system: mouse RAW 264.7 cells incubated with E. coli O113 LPS; conditions: RAW 264.7 cells with E. coli O113 LPS; concentration reversing LPS growth inhibition by 50%
Method: (§1) An in vitro LPS neutralization screening assay for evaluation of Domain III derived peptides was developed (as described in co-owned and co-pending U.S. patent application Ser. No. 08/306,473) which provides both a measure of efficacy of each peptide (EC50) and of the toxicity/growth inhibition of each peptide (IC50).
(§2) The cells were counted and their concentration adjusted to 2×10^5 cells/mL and 100 μL aliquots were added to each well of a 96-well microtitre plate. […] This incubation was performed in the absence or presence of peptides in varying concentrations between 25 ng/mL and 50 μg/mL. […] Cell proliferation was quantitatively measured by the addition of 1 μCi/well [^3H]-thymidine 5 hours after the time of initiation of the assay. After the 15-hour incubation, labeled cells were harvested onto glass fiber filters with a cell harvester (Inotech Biosystems, INB-384, Sample Processing and Filter Counting System, Lansing, Mich.).

mouse RAW 264.7 cells = system: mouse RAW 264.7 cells
Method: as §1, §2

[2] = system: C. albicans (CA-1, Strain SLU-1); assay: Radial diffusion assay; assay type: cell-based, Candida albicans; conditions: pmoles of peptide added to well to achieve a 30 mm^2 zone, PROBIT analysis, crude or purified (P′) peptide
In short: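 Yeast at 1×10^6 CFU/mL in agarose underlayer (3% Sabouraud, 10 mM sodium phosphate pH 7.4); 2-fold peptide dilutions in D-PBS from ~1 mg/mL loaded into wells, 3 h at 37° C, then nutrient overlayer overnight. Value: pmol/well giving 30 mm^2 net clear zone, by PROBIT regression.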

[3] = RAW 264.7 cell growth inhibited by 50%

Compound | In Vitro LPS Neutralization EC50 [1] | C. albicans pmol/30 mm^2 zone [2] | other results
CC[C@H](C)[C@H](NC(=O)[C@H](CC(C)C)NC(=O)[C@H](Cc1c[nH]c2ccccc12)NC(=O)[C@H](CCCCN)NC(C)=O)C(=O)N[C@@H](CCN)C(=O)N[C@@H](CC(C)C)C(=O)N[C@@H](Cc1ccccc1)C(=O)N[C@@H](Cc1c[nH]cn1)C(=O)N[C@@H](CCCCN)C(=O)N[C@@H](CCCCN)C(N)=O [XMP.372P] (Ac-KWLI[Dab]LFHKK-NH2) | >25 µg/mL |  | IC50 (toxicity/growth inhibition of peptide) (mouse RAW 264.7 cells): >25 µg/mL
H-KKLLQLLKK-NH2 [XMP.382P] | NA (NA for EC50 means no evidence neutralization of LPS at up to 50 μg/ml) |  | IC50 (toxicity/growth inhibition of peptide) (mouse RAW 264.7 cells; [3]): NA (NA for IC50 means no evidence of decreased RAW cell growth at up to 50 μg/ml)
H-KKLLLLLKK-NH2 [XMP.385P] | 2.56 ± 0.23 µg/mL |  | IC50 (toxicity/growth inhibition of peptide) (mouse RAW 264.7 cells): >25 µg/mL
H-KKLQLLLKK-NH2 [XMP.381P] | NA (NA for EC50 means no evidence neutralization of LPS at up to 50 μg/ml) |  | IC50 (toxicity/growth inhibition of peptide) (mouse RAW 264.7 cells; [3]): NA (NA for IC50 means no evidence of decreased RAW cell growth at up to 50 μg/ml)
CC[C@H](C)[C@@H]1NC(=O)[C@H](C)NC(=O)[C@H](Cc2c[nH]c3ccccc23)NC(=O)[C@H](CCCCN)NC(=O)[C@H](CCCCN)NC(=O)[C@H](CCCCN)NC(=O)[C@H](CC(C)C)NC(=O)[C@H](CCC(N)=O)NC1=O [XMP.408P] (cyclo(LKKKWAIQ)) | NA (NA for EC50 means no evidence neutralization of LPS at up to 50 μg/ml) |  | IC50 (toxicity/growth inhibition of peptide) (mouse RAW 264.7 cells; [3]): NA (NA for IC50 means no evidence of decreased RAW cell growth at up to 50 μg/ml)
H-VKWLIQL-NH2 [XMP.307] |  | >8,345 pmol/30 mm^2 zone | 
CC[C@H](C)[C@H](NC(=O)[C@H](CC(C)C)NC(=O)[C@H](Cc1c[nH]c2ccccc12)NC(=O)[C@@H](N)CCCCN)C(=O)N[C@@H](CCC(N)=O)C(=O)N[C@@H](CC(C)C)C(=O)N[C@@H](Cc1ccccc1)C(=O)N[C@@H](Cc1c[nH]cn1)C(=O)N[C@@H](CCCCN)C(N)=O [XMP.297] |  | 1,817 pmol/30 mm^2 zone | C. albicans pmol/30 mm^2 zone ([2]; listed as XMP.297P′): 564 pmol/30 mm^2 zone
CC[C@H](C)[C@H](NC(=O)[C@H](CC(C)C)NC(=O)[C@H](Cc1cccc2ccccc12)NC(=O)[C@H](CCCCN)NC(=O)[C@@H](NC(=O)[C@H](CCCCN)NC(=O)[C@H](CO)NC(=O)[C@@H](N)CCCCN)C(C)C)C(=O)N[C@@H](CCC(N)=O)C(=O)N[C@@H](CC(C)C)C(=O)N[C@@H](Cc1ccccc1)C(=O)N[C@@H](Cc1c[nH]cn1)C(=O)N[C@@H](CCCCN)C(=O)N[C@@H](CCCCN)C(N)=O [XMP.116] (H-KSKVK[1Nal]LIQLFHKK-NH2) |  | 670 pmol/30 mm^2 zone | 
CC[C@H](C)[C@H](NC(=O)[C@H](CC(C)C)NC(=O)[C@@H](Cc1ccc2ccccc2c1)NC(=O)CNC(=O)[C@@H](NC(=O)[C@H](CCCCN)NC(=O)[C@H](CO)NC(=O)[C@@H](N)CCCCN)C(C)C)C(=O)N[C@@H](CC(C)C)C(=O)N[C@@H](CC(C)C)C(=O)N[C@@H](Cc1ccccc1)C(=O)N[C@@H](Cc1c[nH]cn1)C(=O)N[C@@H](CCCCN)C(=O)N[C@@H](CCCCN)C(N)=O [XMP.242] (H-KSKVG[d2Nal]LILLFHKK-NH2) |  | 359 pmol/30 mm^2 zone | 
H-KSKVGWLIQLFHKKKSKVGWLIFLFHKK-NH2 [XMP.274] |  | >2,457 pmol/30 mm^2 zone | 
H-KSKVGWLIQLFHKKKSKVGWLIQLFHKK-NH2 [XMP.29] |  | >1469 pmol/30 mm^2 zone | 
H-KSKVGWLIELFHKK-NH2 [XMP.263] |  | 1,197 pmol/30 mm^2 zone | 
KKVLIQLKK-NH2 [XMP.343] |  | 245 pmol/30 mm^2 zone | 
H-SKVKWLIQLFHKK-NH2 [XMP.284P] | 4.72 ± 0.08/ μg/ml and 3.57 ± 0.09 μg/ml |  | 
H-KVKWLIQLFHK-NH2 [XMP.288] |  | >3,062 pmol/30 mm^2 zone | C. albicans pmol/30 mm^2 zone ([2]; listed as XMP.288P′): 279 pmol/30 mm^2 zone
H-SKVKWLIQL-NH2 [XMP.294] |  | >4,634 pmol/30 mm^2 zone | 
